Like-named read-outs stand apart in the source and are kept apart here.
How the values were obtained:
Format in all cases: cell-based
Pseudomonas aeruginosa = experiment: Broth microdilution MIC (CLSI), Pseudomonas aeruginosa
Description: (§1) (i) Panels of engineered bacterial strains containing various combinations of porin and efflux mutations were used. The construction of all the strains used in the study is described in detail in references, [44], and [45]. (ii) KPC-producing clinical isolates and their derivatives that lost KPC plasmids were used also. These strains and their origins are described in the Table S2. (iii) Finally, KPC-producing clinical isolates enriched in strains with porin mutations were used. The mutations identified include various deletions, insertions, nonsense mutations, and decreased expression. Most of the isolates were obtained from JMI Laboratories or International Health Management Associates (IHMA); they were collected in the course of global surveillance studies.
(§2) Bacterial isolates were subjected to broth microdilution susceptibility testing, performed according to Clinical and Laboratory Standards Institute (CLSI) methods ([46]), using panels prepared in-house. […] Xeruborbactam was synthesized at Qpex Biopharma, San Diego, CA. Avibactam was purchased from eNovation Chemicals LLC, Bridgewater, NJ, USA; zidebactam was from MedKoo Biosciences, Inc., Morrisville, NC, and nacubactam was from Advanced ChemBlocks, Hayward, CA. Durlobactam was synthesized at Acme Bioscience, Palo Alto, CA, USA.

Acinetobacter baumannii = experiment: Broth microdilution MIC (CLSI), Acinetobacter baumannii; conditions: Acinetobacter baumannii, read-out: MIC
Description: as §1, §2

Klebsiella pneumoniae = experiment: microbe, parasite or virus in culture; conditions: for MIC90: read-out: MIC90
Description: as §1, §2

[1] = PAM1154 (oprM::Hg), xeruborbactam 0 µg/ml
[2] = Klebsiella pneumoniae, KPC-producing clinical strains with functional OmpK36, alone
[3] = Klebsiella pneumoniae, KPC-producing clinical strains with nonfunctional OmpK36, alone
[4] = Klebsiella pneumoniae, KPC-producing clinical strains, all strains (n = 141), alone

CCN1CCN(C(=O)N[C@@H](C(=O)N[C@@H]2C(=O)N3[C@@H]2SC(C)(C)[C@@H]3C(=O)O)c2ccccc2)C(=O)C1=O [Piperacillin]
MIC (Pseudomonas aeruginosa; [1]): 0.5 mg/L
MIC (Pseudomonas aeruginosa; PAM1154, xeruborbactam 2 µg/ml): 0.125 mg/L
MIC (Pseudomonas aeruginosa; PAM1154, xeruborbactam 4 µg/ml): 0.125 mg/L
MIC (Pseudomonas aeruginosa; PAM1154, xeruborbactam 8 µg/ml): 0.06 mg/L

CC1(C)[C@H](C(=O)O)N2C(=O)C[C@H]2S1(=O)=O [Sulbactam]
MIC (Acinetobacter baumannii; AB1007 (no beta-lactamase), xeruborbactam 0 µg/ml): 2 mg/L
MIC (Acinetobacter baumannii; AB1007, xeruborbactam 2 µg/ml): 2 mg/L
MIC (Acinetobacter baumannii; AB1007, xeruborbactam 4 µg/ml): 2 mg/L
MIC (Acinetobacter baumannii; AB1007, xeruborbactam 8 µg/ml): 0.25 mg/L

C[C@@H](O)[C@H]1C(=O)N2C(C(=O)O)=C(SC3CN(C4=NCCS4)C3)[C@H](C)[C@H]12 [Tebipenem]
MIC (Klebsiella pneumoniae; KPM1026a (no beta-lactamase), xeruborbactam 0 µg/ml): 0.03 mg/L
MIC (Klebsiella pneumoniae; KPM1026a, xeruborbactam 2 µg/ml): 0.03 mg/L
MIC (Klebsiella pneumoniae; KPM1026a, xeruborbactam 4 µg/ml): 0.016 mg/L
MIC (Klebsiella pneumoniae; KPM1026a, xeruborbactam 8 µg/ml): 0.004 mg/L

O=C(O)C[C@@H]1CC[C@H](NC(=O)Cc2cccs2)B(O)O1 [Vaborbactam]
effect on beta-lactam MIC (Klebsiella pneumoniae; KPM1026a, vaborbactam up to 64 μg/mL, data not shown): no reduction
MIC50 (Klebsiella pneumoniae; [2]): > 64 mg/L
MIC90 (Klebsiella pneumoniae; [2]): > 64 mg/L
MIC50 (Klebsiella pneumoniae; [3]): > 64 mg/L
MIC90 (Klebsiella pneumoniae; [3]): > 64 mg/L
MIC50 (Klebsiella pneumoniae; [4]): > 64 mg/L
MIC90 (Klebsiella pneumoniae; [4]): > 64 mg/L
MIC (Klebsiella pneumoniae; Klebsiella pneumoniae, KPM1271 (KPC-3; wild type), alone, read-out: MIC): > 128 mg/L
MIC (Klebsiella pneumoniae; Klebsiella pneumoniae, KPM1272 (KPC-3; ramR_fs), alone, read-out: MIC): > 128 mg/L
MIC (Klebsiella pneumoniae; Klebsiella pneumoniae, KPM1273 (KPC-3; ramR_fs ompK36_1171), alone, read-out: MIC): > 128 mg/L
MIC (Klebsiella pneumoniae; Klebsiella pneumoniae, KPM2067 (KPC-3; ompK36_fs), alone, read-out: MIC): > 128 mg/L
MIC (Klebsiella pneumoniae; Klebsiella pneumoniae, KPM2601 (KPC-3; ΔompK35), alone): > 128 mg/L
MIC (Klebsiella pneumoniae; Klebsiella pneumoniae, KPM2631 (KPC-3; ompK36_fs ΔompK35), alone): > 128 mg/L

Cn1c(N)c(NC(=O)NCCN)c[n+]1CC1=C(C(=O)O)N2C(=O)[C@@H](NC(=O)/C(=N\OC(C)(C)C(=O)[O-])c3nsc(N)n3)[C@H]2SC1 [ceftolozane]
MIC (Pseudomonas aeruginosa; [1]): 0.5 mg/L
MIC (Pseudomonas aeruginosa; PAM1154, xeruborbactam 2 µg/ml): 0.25 mg/L
MIC (Pseudomonas aeruginosa; PAM1154, xeruborbactam 4 µg/ml): 0.25 mg/L
MIC (Pseudomonas aeruginosa; PAM1154, xeruborbactam 8 µg/ml): 0.125 mg/L

CC1=C(C(=O)O)N2C(=O)[C@@H](NC(=O)[C@H](N)c3ccccc3)[C@H]2SC1 [cephalexin]
MIC (Klebsiella pneumoniae; Klebsiella pneumoniae): 128 mg/L

Reference: article PMC9578396, “Intrinsic Antibacterial Activity of Xeruborbactam In Vitro: Assessing Spectrum and Mode of Action” (Antimicrobial Agents and Chemotherapy, 2022)
